This passage reports Ki and Relative activity results from ChEMBL document CHEMBL1122894, “Preparation of 20-(hydroxymethyl)-4-methyl-4-aza-2-oxa-5 alpha-pregnan-3-one as an inhibitor of testosterone 5 alpha-reductase” (J Med Chem, 1985).

Assay [1] in a line: Compound was evaluated for in vitro inhibition of Testosterone 5 alpha-Reductase using substrate concentration 3 x 10e-7 M. The arrangement: species or system Rattus norvegicus.
The species entered for assay [2] is Rattus norvegicus. Nature of the assay: Comparative activity against Testosterone 5 alpha-Reductase evaluated by setting Ki of 7-(2-Hydroxy-1-methyl-ethyl)-1,4a,6a-trimethyl-hexadecahydro-indeno[5,4-f]quinolin-2-one at 1.

Structures are written as SMILES.

With `CC(CO)C1CCC2C3CC[C@H]4N(C)C(=S)OCC4(C)C3CCC12C` (stereo not given in full), the Ki in assay [1] was found to be 400 nM. In other words, the sub-micromolar range.

`CC(CO)C1CCC2C3CC[C@H]4N(C)C(=O)OCC4(C)C3CCC12C` (stereo not given in full) came in with a Ki in assay [1] of 120 nM. This Ki is about 3.3-fold lower than that of the compound before. On the same count and under the same terms, the figure for `CCN(CC)C(=O)[C@H]1CC[C@H]2[C@@H]3CC[C@H]4N(C)C(=O)CC[C@]4(C)[C@H]3CC[C@]12C` is 7.3 nM. On to `CC(CO)C1CCC2C3CC[C@H]4N(C)C(=O)CCC4(C)C3CCC12C` (stereo not given in full), for which the Ki in assay [1] came out at 3.8 nM. The Relative activity in assay [2] was 1.
